In brackets after ≈: the same amount, converted by molar mass. Read-outs that look alike come from different tables or passages of the source.
Experiments:
Format in all cases: physicochemical
[1] = Solubility of doripenem crystal in water
Experimental: The solubility of the Type VI doripenem anhydride crystal of Example 3 according to the present invention was measured and compared with that of the Type IV doripenem of Comparative Example 9.
50 mg of each of the Type VI doripenem anhydride crystal of Example 3 and the Type IV doripenem of Comparative Example 9 was added with water until the doripenem was completely dissolved, and the solubility thereof was measured. Meanwhile, 10 mL of water was added with the Type VI doripenem anhydride crystal of Example 3 and the Type IV doripenem of Comparative Example 9 until the doripenem was completely dissolved, and the solubility thereof was measured.

[2] = Stability: purity after standing at 60° C. for 3 weeks
Experimental: In addition, the Type VI doripenem anhydride crystal according to the present invention and the Type IV doripenem were allowed to stand at 60° C. for 3 weeks, and the purity thereof was measured to evaluate the stability.

TGA loss = assay: TGA loss
Experimental: Based on the results of TGA, about 4.8% loss occurred in the Type IV doripenem of Comparative Example 9 (FIG. 8) and about 0.46% loss occurred in the Type VI doripenem anhydride crystal of Example 3 according to the present invention (FIG. 7). This means that the novel doripenem crystal, prepared through the method of the present invention, is an anhydride. Furthermore, the water content of the doripenem anhydride crystal according to the present invention was measured and found to be less than about 2%.

[3] = Stability: max. amount of impurities after standing at 60±5° C. for 3 weeks
Experimental: In addition, the Type VII doripenem anhydride crystal of Example 7 according to the present invention and the Type IV doripenem of Comparative Example 9 were allowed to stand at 60±5° C. for 3 weeks, and the purity thereof was measured to evaluate the stability.

[4] = Measurement of water content
Experimental: The doripenem anhydride crystals of Examples 3 and 7 according to the present invention and the Type IV doripenem hydrate of Comparative Example 9 were measured for water content.

[5] = DSC, decomposition temperature / stability at high temperature
Experimental: When the Type VI doripenem anhydride crystal of Example 3 according to the present invention and the conventional Type IV doripenem were analyzed through differential scanning calorimetry (DSC), the decomposition temperature of the Type VI doripenem anhydride crystal was higher than that of the Type IV doripenem (FIG. 6).
In addition, the decomposition temperature of the Type VII doripenem anhydride crystal of Example 7 according to the present invention was higher than that of the Type IV doripenem hydrate (FIG. 11).

[6] = 2 weeks, listed as Comp. Example 9
[7] = 3 weeks, listed as Comp. Example 9

C[C@@H](O)[C@H]1C(=O)N2C(C(=O)O)=C(S[C@@H]3CN[C@H](CNS(N)(=O)=O)C3)[C@H](C)[C@H]12 [Comparative Example 9, doripenem]
solubility ([1]; at 22° C.): 20 mg/mL (≈ 47.6 mM) | Purity (%) ([2]; 1 week, listed as Comp. Example 9): 99.0% | Purity (%) [2, 6]: 98.2% | Purity (%) [2, 7]: 97.3% | decrease of purity over time ([2]; 3 weeks, listed as Type IV doripenem): 2.56% | Purity (%) ([2]; Initial, listed as Comp. Example 9): 99.8% | loss in TGA (TGA loss): about 4.8% | Max. Amount of impurities (%) ([3]; 1 week): 0.08% | Max. Amount of impurities (%) [3, 6]: 0.23% | increase of maximum amount of impurities over time ([3]; 3 weeks): 0.22% | Max. Amount of impurities (%) [3, 7]: 0.28% | Max. Amount of impurities (%) ([3]; Initial): 0.06%

C[C@@H](O)[C@H]1C(=O)N2C(C(=O)O)=C(S[C@@H]3CN[C@H](CNS(N)(=O)=O)C3)[C@H](C)[C@H]12 [Example 3, doripenem]
solubility ([1]; 22 °C, thermodynamic from solid, at 20 to 25° C., read-out: solubility): 55 to 65 mg/mL (≈ 131 to 155 mM) | Purity (%) ([2]; 1 week): 99.4% | Purity (%) ([2]; 2 weeks): 98.8% | Purity (%) ([2]; 3 weeks): 98.7% | decrease of purity over time ([2]; 3 weeks): less than 1% | Purity (%) ([2]; Initial): 99.6% | loss in TGA (TGA loss): about 0.46% | Water content ([4]; listed as Type VI doripenem anhydride crystal): less than 2% | stability at high temperature (DSC decomposition temperature) compared to Type IV doripenem hydrate [5]: superior stability at high temperature

C[C@@H](O)[C@H]1C(=O)N2C(C(=O)O)=C(S[C@@H]3CN[C@H](CNS(N)(=O)=O)C3)[C@H](C)[C@H]12 [Example 7, doripenem]
solubility ([1]; 22 °C, thermodynamic from solid, measured in the same manner as for Example 3, read-out: solubility): 30 to 35 mg/mL (≈ 71.3 to 83.2 mM) | Water content ([4]; listed as Type VII doripenem anhydride crystal): less than 2% | stability at high temperature (DSC decomposition temperature) compared to Type IV doripenem hydrate [5]: superior stability at high temperature | Max. Amount of impurities (%) ([3]; 1 week): 0.08% | Max. Amount of impurities (%) ([3]; 2 weeks): 0.08% | Max. Amount of impurities (%) ([3]; 3 weeks): 0.08% | increase of maximum amount of impurities over time ([3]; 3 weeks): 0.02% | Max. Amount of impurities (%) ([3]; Initial): 0.06%
